In ChEMBL document CHEMBL6114999, “Natural pyrrolo[1,2-a]quinazolinone derivatives: Design, synthesis, characterization, and bio-evaluation as novel antiviral agents” (Eur J Med Chem, 2025):
Activity calls are given as the source filed them. No cut-off for these calls is given here.

Tests used:
[1] = system: Coxsackievirus B3; experiment: Antiviral activity against CVB3 infected in HEp-2 cells assessed as protection from virus-induced cytopathogenicity incubated for 48 hrs by MTT assay; format: functional, organism-based; conditions: Enterovirus B, HEp-2, 48 h
[2] = system: Enterovirus; experiment: Antiviral activity against EV71 infected in human RD cells assessed as protection from virus-induced cytopathogenicity incubated for 48 hrs by MTT assay; format: functional, organism-based; conditions: Enterovirus, 71, RD
[3] = system: Coxsackievirus B3; experiment: Antiviral activity against CVB3 infected in HEp-2 cells assessed as inhibition of virus-induced cell death at 50 uM incubated for 48 hrs by MTT assay relative to control; format: functional; conditions: Enterovirus B
[4] = system: Enterovirus; experiment: Antiviral activity against EV71 infected in human RD cells assessed as protection from virus-induced cytopathogenicity by measuring reduction in progeny virus titer incubated for 48 hrs by MTT assay; format: functional, 71
[5] = system: Coxsackievirus B3; experiment: Antiviral activity against CVB3 infected in HEp-2 cells assessed as inhibition of virus-induced cell death at 100 uM incubated for 48 hrs by MTT assay relative to control; format: functional; conditions: for inhibition at 100 µM: Enterovirus B, HEp-2, 48 h
[6] = system: Enterovirus; experiment: Antiviral activity against EV71 infected in human RD cells assessed as inhibition of virus-induced cell death at 50 uM incubated for 48 hrs by MTT assay relative to control; format: functional; conditions: Enterovirus, 71, RD
[7] = Cytotoxicity against human RD cells incubated for 48 hrs by MTT assay; format: toxicity, cell-based
[8] = system: Enterovirus; experiment: Antiviral activity against EV71 infected in human RD cells assessed as inhibition of virus-induced cell death at 25 uM incubated for 48 hrs by MTT assay relative to control; format: functional; conditions: Enterovirus, 71, RD
[9] = system: Coxsackievirus B3; experiment: Antiviral activity against CVB3 infected in HEp-2 cells assessed as inhibition of virus-induced cell death at 25 uM incubated for 48 hrs by MTT assay relative to control; format: functional; conditions: Enterovirus B
[10] = Selectivity index, ratio of CC50 for cytotoxicity against human RD cells to EC50 for antiviral activity against EV71 infected in human RD cells; format: toxicity, cell-based; conditions: read-out: Ratio CC50/EC50
[11] = Selectivity index, ratio of CC50 for cytotoxicity against HEp-2 cells to EC50 for antiviral activity against CVB3 infected in HEp-2 cells; format: toxicity, cell-based; conditions: human, read-out: Ratio CC50/EC50
[12] = Cytotoxicity against human HEp-2 cells incubated for 48 hrs by MTT assay; format: toxicity, cell-based
[13] = system: Coxsackievirus B3; experiment: Antiviral activity against CVB3 infected in HEp-2 cells assessed as protection from virus-induced cytopathogenicity by measuring reduction in progeny virus titer incubated for 48 hrs by MTT assay; format: functional
[14] = system: Enterovirus; experiment: Antiviral activity against EV71 infected in human RD cells assessed as inhibition of virus-induced cell death at 100 uM incubated for 48 hrs by MTT assay relative to control; format: functional, 71; conditions: for inhibition at 100 µM: Enterovirus, 71, RD
[15] = system: Enterovirus; experiment: Antiviral activity against EV71 infected in human RD cells assessed as increase in cell viability at 3.125 to 100 uM preincubated with compound followed by viral infection measured after 48 hrs by MTT assay; format: functional, organism-based; conditions: 71, dose 3.125-100 µM
[16] = system: HEp-2; experiment: Inhibition of morphological changes in HEp-2 cells infected with CVB3 assessed as reduction in cytopathic effect at 50 to 100 uM measured after 48 hrs by Reed-Muench method; format: functional, cell-based; conditions: Coxsackievirus B3, dose 50-100 µM
[17] = system: Enterovirus; experiment: Antiviral activity against EV71 infected in human RD cells assessed as log reduction in viral replication at 100 uM incubated for 4 to 32 hrs by […] method; format: functional, 71; conditions: time 4-32 hrs
[18] = system: Enterovirus; experiment: Antiviral activity against EV71 infected in human RD cells assessed as increase in cell viability at 3.125 to 100 uM incubated with compound and virus measured after 48 hrs by MTT assay; format: functional, organism-based; conditions: 71, dose 3.125-100 µM
[19] = system: Enterovirus; experiment: Virucidal activity against EV71 infected in human RD cells at 100 uM pretreated compound with virus followed by inoculation of mixture into host cells measured after 2 days by Reed-Muench method; format: functional, organism-based; conditions: 71, time 2.0 day
[20] = system: Coxsackievirus B3; experiment: Antiviral activity against CVB3 infected in HEp-2 cells assessed as inhibition of virus-induced cell death at 25 to 100 uM incubated for 48 hrs by MTT assay; format: functional, organism-based; conditions: dose 25-100 µM
[21] = system: Enterovirus; experiment: Antiviral activity against EV71 infected in human RD cells assessed as reduction in viral protein translation at 100 uM incubated for 32 hrs by immunofluorescence analysis; format: functional, organism-based; conditions: 71
[22] = system: Enterovirus; experiment: Antiviral activity against EV71 infected in human RD cells assessed as inhibition of virus-induced cell death at 25 to 100 uM incubated for 48 hrs by MTT assay; format: functional, organism-based; conditions: 71, dose 25-100 µM
[23] = system: Enterovirus; experiment: Antiviral activity against EV71 infected in human RD cells assessed as viral infection in cell at 100 uM incubated for 46.5 hrs by fluorescence microscopy (reference value: 80.67 %); format: functional, 71
[24] = system: Enterovirus; experiment: Inhibition of EGFP-fused EV71 2Apro transfected in host cells co-expressing FLuc assessed as reduction in firefly luciferase activity incubated for 24 to 36 hrs by chemiluminescence analysis; format: cell-based; conditions: 71, time 24-36 hrs
[25] = system: Enterovirus; experiment: Antiviral activity against EV71 infected in human RD cells assessed as inhibition of viral RNA synthesis at 100 uM incubated for 32 hrs by qRT-PCR analysis; format: functional, organism-based; conditions: 71
[26] = system: Enterovirus; experiment: Antiviral activity against EV71 infected in human RD cells assessed as cell viability at 100 uM pre-infected with virus followed by compound treatment measured after 48 hrs post-infection by MTT assay relative to control; format: functional, 71
[27] = system: Enterovirus; experiment: Antiviral activity against EV71 infected in human RD cells assessed as viral infection in cell at 50 uM incubated for 46.5 hrs by fluorescence microscopy (reference value: 80.67 %); format: functional, 71
[28] = system: RD; experiment: Inhibition of morphological changes in human RD cells infected with EV71 assessed as reduction in cytopathic effect at 50 to 100 uM measured after 48 hrs by Reed-Muench method; format: functional, cell-based; conditions: Enterovirus, 71, dose 50-100 µM
[29] = system: Enterovirus; experiment: Inhibition of EV71 3Dpol assessed as decrease in RNA chain extension by polyacrylamide gel electrophoresis; conditions: 71

With `NC(=O)c1ncn([C@@H]2O[C@H](CO)[C@@H](O)[C@H]2O)n1` [RIBAVIRIN] the EC50 [1] was 24.7 µM, the EC50 [2] was 40.4 µM and the inhibition at 50 µM [3] was 60.7%. The “log(activity)” value [4] was 2.3, the Imax [5] was 71% and the inhibition at 100 µM [5] was 71%. For the same compound, the inhibition at 50 µM [6] was 61.1%, the CC50 at 48 h [7] was 267 µM and the inhibition at 25 µM [8] was 53.8%. The inhibition at 25 µM [9] was 47.3%, the selectivity ratio [10] was 6.6 and the selectivity ratio [11] was 8.2. The CC50 at 48 h [12] was 204 µM, the “log(activity)” value [13] was 3.07 and the Imax [14] was 62.33%. It also gave an inhibition at 100 µM [14] of 69.7%.

With `CN1C(=O)c2ccccc2N2C(=O)CCC12C(=O)NCCc1c[nH]c2ccccc12` (stereo not given) the EC50 [1] was 82 µM, the Activity [15] was “inactive” and the inhibition [16] was “Active; Compound Successfully Protected Host Cells From Pathological Changes Or Apoptosis”. The EC50 [2] was 14.8 µM, the “log(activity)” value [17] was 3.25 and the Activity [18] was “inactive”. The inhibition at 50 µM [3] was 40.8%, the “log(activity)” value [4] was ~2.73 and the Activity [19] was “inactive”. For the same compound, the inhibition at 100 µM [5] was 54.4%, the inhibition at 50 µM [6] was 56.7% and the CC50 at 48 h [7] was 265 µM. For the same compound, the inhibition at 25 µM [8] was 33%, the “antiviral activity call (active/inactive)” value [20] was “Active” and the Activity [21] was “Active”. The inhibition [22] was “Active”, the Activity [23] was 5.34% and the inhibition at 25 µM [9] was 24.2%. For the same compound, the selectivity ratio [10] was 17.9, the selectivity ratio [11] was 2.6 and the CC50 at 48 h [12] was 217 µM. The inhibition [24] was “Active”, the inhibition [25] was “Active” and the Activity [26] was >80%. For the same compound, the “log(activity)” value [13] was ~4.03, the Activity [27] was 22.66% and the inhibition at 100 µM [14] was 62.3%. The inhibition [28] was “Active; Compound Successfully Protected Host Cells From Pathological Changes Or Apoptosis” and the inhibition [29] was “inactive”.
